Patent US20070059272A1 (priority 2005, published 2007)

Columns and labels:
[1] = in vivo, iv; cited from earlier work
P. aeruginosa PA27853 = assay: Mice with slow release morphine pellets drinking PA27853-spiked formula; type: in vivo; settings: daily oral 1×10^8 cfu/ml PA27853
[2] = test system: PA-I expression in P. aeruginosa; type: cell-based, Pseudomonas aeruginosa
[3] = test system: PA-I expression in Pseudomonas strain PA27853; assay: Quantitative RT-PCR of PA-I mRNA in PA27853 exposed to morphine; type: cell-based, Pseudomonas aeruginosa
[4] = test system: membrane protein fractions of P. aeruginosa; assay: Morphine binding to P. aeruginosa membrane protein fractions; design: species or system Pseudomonas aeruginosa
OprF = target: T1, OprF (Pseudomonas aeruginosa, UniProt P13794); assay: ELISA binding of IFN-γ to purified OprF; settings: dose-dependent
T1 sequence (P13794 25-350): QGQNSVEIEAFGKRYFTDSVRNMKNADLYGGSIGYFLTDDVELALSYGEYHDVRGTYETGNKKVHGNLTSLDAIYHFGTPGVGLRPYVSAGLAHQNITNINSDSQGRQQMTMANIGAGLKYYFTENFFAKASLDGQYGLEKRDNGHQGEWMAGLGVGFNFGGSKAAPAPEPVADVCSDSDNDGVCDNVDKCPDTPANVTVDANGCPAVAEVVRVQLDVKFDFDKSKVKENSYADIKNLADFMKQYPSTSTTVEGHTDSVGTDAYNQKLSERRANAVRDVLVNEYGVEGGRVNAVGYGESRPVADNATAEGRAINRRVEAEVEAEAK

[5] = test system: whole bacterial cells of PA27853; assay: IFN-γ binding to whole bacterial cells of PA27853; design: species or system Pseudomonas aeruginosa
Protocol: (§1) In addition, strains were exposed to apical media from Caco-2 cells basolaterally exposed to single and combinations of the various epithelial-derived cytokines. […] Media from Caco-2 cells exposed to various combinations of these cytokines had no effect on PA-I expression. […] Using both ELISA, immunofluorescence microscopy, and flow cytometry, the binding characteristics of IFNγ were determined for both whole bacteria and membrane fractions of P. aeruginosa. […] These effects were also observed with strain PAO1. […] It has been difficult to immunoprecipitate a significant quantity of this protein from PA27853, but it has been determined that this protein can also be immunoprecipitated from E. coli (FIG. 12C). Next, IFN-γ binding specificity, to whole bacterial cells, was determined, using reiterative binding studies in the presence of various gram negatie bacterial strains, including P. aeruginosa. […] Finally, in order to determine if PA-I was functionally expressed in PA27853 in the presence IFN-γ, PA27853 was inoculated onto Caco-2 cell monolayers in the presence of IFN-γ and the effect on barrier dysregulating dynamics of PA27853 against this cell line were assessed to determine if IFN-γ shifted the dynamics. […]

[6] = test system: PA-I promoter activity in reporter strain PA27853/PLL-EGFP
C4-HSL synthesis in PAO1 = assay: C4-HSL in PAO1 supernatant by luminescence reporter strain pSB536; type: cell-based, Pseudomonas aeruginosa; settings: PAO1, 100 ng/ml IFN-γ, bacterial supernatants
[7] = test system: PCN production in PAO1 mutant strains; type: cell-based, Pseudomonas aeruginosa
[8] = test system: PA-I expression in P. aeruginosa; assay: PA-I expression in P. aeruginosa exposed to media containing candidate host agents; type: cell-based, Pseudomonas aeruginosa; settings: P. aeruginosa in media containing adenosine, TNFα, IL-2, IL-6, IL-8 or IFNγ
Excerpt: FIG. 10. Exposure of P. aeruginosa to IFNγ induces PA-I expression and the expression of rhlI. For controls (lane 1, 2) bacteria are suspended in media I (Tryptic soy broth) and media II (DMEM +10% FBS ). Lane 3, 4 are MRNA levels from bacteria exposed to IFNγ and TNFα in DMEM.
In addition, strains were exposed to apical media from Caco-2 cells basolaterally exposed to single and combinations of the various epithelial-derived cytokines. […] Media from Caco-2 cells exposed to various combinations of these cytokines had no effect on PA-I expression. […] Using both ELISA, immunofluorescence microscopy, and flow cytometry, the binding characteristics of IFNγ were determined for both whole bacteria and membrane fractions of P. aeruginosa. […] These effects were also observed with strain PAO1. […] It has been difficult to immunoprecipitate a significant quantity of this protein from PA27853, but it has been determined that this protein can also be immunoprecipitated from E. coli (FIG. 12C). Next, IFN-γ binding specificity, to whole bacterial cells, was determined, using reiterative binding studies in the presence of various gram negatie bacterial strains, including P. aeruginosa. […]

[9] = test system: whole cells of P. aeruginosa (strain PAO1); assay: IFN-γ binding to whole cells of P. aeruginosa PAO1 (ELISA, immunofluorescence); design: species or system Pseudomonas aeruginosa
Protocol: IFN-γ direct binding to a protein on the surface of P. aeruginosa, in the course of virulence activation, was also investigated. ELISA binding assays were performed by first coating microtiter plates with P. aeruginosa (strain PAO1), then adding recombinant human IFN-γ (rH IFN-γ), followed by biotin-labeled anti-IFN-γ antibody. IFN-γ avidly bound to whole fixed cells of P. aeruginosa in a dose-dependent manner (FIG. 25A). The ELISA data were confirmed by the results of immunofluorescent imaging of bacterial cells exposed to IFN-γ followed by biotin-labeled anti-IFN-γ antibody and Alexa 594-labeled streptavidin. The vast majority of bacterial cells (73%±3.2% vs. 8.5%±2.5%) bound IFN-γ (FIG. 25B, FIG. 27). The binding capacity of the IFN-γ to the P. aeruginosa was affected by bacterial growth phase (FIG. 28A). In order to localize the binding site of IFN-γ to P. aeruginosa (PAO1), equal protein concentrations of membrane and cytosol fractions of P. aeruginosa were prepared and coated onto ELISA microtiter plates. […] To determine if the observed membrane binding by IFN-γ was protein dependent, membrane fractions were treated with proteinase K for 3 hours and IFN-γ binding assessed.

[10] = test system: PA-I protein expression in P. aeruginosa mutant strains; assay: PA-I expression in PAO1 mutant strains exposed to IFN-γ; type: cell-based, Pseudomonas aeruginosa
Caco-2 cells = assay: TEER of Caco-2 monolayers inoculated with PA27853 with and without IFN-γ; type: cell-based, human
Protocol: as §1

lecA (PA-I) mRNA in PAO1 = assay: Northern blot of PA-I (lecA) mRNA in PAO1; type: cell-based, Pseudomonas aeruginosa; settings: for PA-I mRNA by Northern blot: PAO1, 200 ng/ml cytokine in cell culture media, 4 hours
[11] = test system: pyocyanin (PCN) production in P. aeruginosa PAO1; type: cell-based, Pseudomonas aeruginosa
[12] = test system: membrane fractions of P. aeruginosa (PAO1); assay: ELISA binding to membrane fractions and solubilized membrane proteins of P. aeruginosa PAO1; design: species or system Pseudomonas aeruginosa
[13] = test system: PA-I protein expression in PAO1; type: cell-based, Pseudomonas aeruginosa
[14] = test system: rhlI transcription in PAO1; assay: Northern blot of rhlI gene expression in PAO1; type: cell-based, Pseudomonas aeruginosa
PA27853 = assay: Biofilm formation assay, PA27853; type: cell-based, Pseudomonas aeruginosa
MDCK cells = type: cell-based
P. aeruginosa = type: cell-based, Pseudomonas aeruginosa

CN1CC[C@]23c4c5ccc(O)c4O[C@H]2[C@@H](O)C=C[C@H]3[C@H]1C5 [morphine]
concentration at tissue sites such as the intestinal mucosa [1]: ≤ 100 µM | mice that developed severe sepsis (P. aeruginosa PA27853): 4/4 | mortality (P. aeruginosa PA27853): significant mortality | response to express PA-I [2]: robust response | PA-I expression ([3]; PA27853, physiologic concentrations of morphine (13 μM)): four-fold increase | increase in PA-I mRNA ([3]; PA27853 exposed to morphine (13 μM), quantitative RT-PCR): 4 fold | binding to membrane protein fractions [4]: binds to membrane protein fractions

IFN-γ: human recombinant Interferon gamma
binding to purified OprF (OprF): directly binds | binding to whole bacterial cells [5]: high binding affinity | PA-I expression in reporter strain exposed to cytokines [6]: significant increase in PA-I expression | C4-HSL synthesis (C4-HSL synthesis in PAO1): increased | PCN production induced by IFN-γ in rhlI and rhlR mutant strains [7]: abolished | PA-I expression, candidate agents alone [8]: induced a direct effect on PA-I expression | binding to whole fixed cells by ELISA ([9]; PAO1, recombinant human IFN-γ): avidly bound | bacterial cells that bound IFN-γ ([9]; immunofluorescent imaging, versus 8.5%±2.5% control): 73%±3.2% | PA-I expression induced by IFN-γ in rhlI and rhlR mutant strains [10]: abolished | PA-I protein expression in OprF mutant strains ([10]; 100 ng/ml of IFN-γ): failed to increase the expression of the PA-I protein | PA-I protein expression in strain 31899 reconstituted with OprF ([10]; plasmid pUCP24/OprF): recovery of their responsiveness | barrier dysregulating effect of PA27853 (TEER) (Caco-2 cells; Caco-2, five hours of incubation): enhanced the barrier dysregulating effect | TEER, IFN-γ alone (Caco-2 cells; Caco-2, no bacteria): Neither media nor IFN-γ alone altered TEER | PA-I expression, in vitro studies [2]: induced PA-I expression | response to express PA-I [2]: robust response | PA-I mRNA by Northern blot (lecA (PA-I) mRNA in PAO1): Induction of PA-I mRNA was observed | PA-I mRNA (lecA (PA-I) mRNA in PAO1; early stationary phase of growth): increased | pyocyanin production [11]: increased pyocyanin production | binding to membrane versus cytosol fractions ([12]; equal protein concentrations, ELISA): preferentially bound to membrane fractions | binding to membranes after proteinase K ([12]; proteinase K for 3 hours): decreased | binding to solubilized membrane proteins of OprF knockout strains ([12]; versus wild-type PAO1, ELISA): reduced binding | IFN-γ concentration with the greatest increase in PA-I protein expression [13]: 100 ng/mL | PA-I protein [13]: increased | rhlI transcription [14]: induced

C=CCN1C[C@H](C)N([C@H](c2ccc(C(=O)N(CC)CC)cc2)c2cccc(O)c2)C[C@H]1C [BW373U86]
biofilm production (PA27853): especially increased | PA-I expression as judged by fluorescence of the GFP reporter strain [6]: greatest effect on PA-I expression | TEER of MDCK cells following apical exposure to PA27853 plus opioid (MDCK cells): more profound decrease in the TEER | response to express PA-I [2]: robust response | PA-I protein [13]: same degree as C4-HSL

CCCC(=O)N[C@H]1CCOC1=O [C4-HSL, C4-homoserine lactone]
PCN production in rhlR mutant strain [7]: did not restore PCN production | PCN production in seven additional mvfR mutants [7]: none of these mutants produced PCN | PCN production in ΔGacA and ΔMvfR [7]: unable to restore PCN production | PCN production in ΔGacA/gacA [7]: decreased, albeit minimally | PCN production in ΔMvfR/mvfR [7]: further increased | PCN response of MvfR truncation mutant 121-332 [7]: did not respond | PCN response of MvfR truncation mutants 1-292, 1-291 and 1-283 [7]: did not respond | PCN response of MvfR truncation mutants 1-299 and 1-293 [7]: enhanced PCN production | dynamics of PCN production in ΔGacA/gacA [7]: no effect on the dynamics of PCN production | dynamics of PCN production in ΔMvfR/mvfR [7]: shift in PCN production at lower cell densities | PA-I expression, in vitro studies [2]: induced PA-I expression | PA-I mRNA by Northern blot (lecA (PA-I) mRNA in PAO1): Induction of PA-I mRNA was observed | onset of PCN production versus cell density [11]: shift in the production of PCN at lower cell densities | PA-I protein expression [13]: responds to varying doses | bacterial growth in TSB media (P. aeruginosa): Neither compound had an effect
